How the values were obtained:
[1] = biological target: T1, Disintegrin and metalloproteinase domain-containing protein 17 (Homo sapiens, UniProt P78536); assay: Inhibition of human catalytic domain of TACE assessed as inhibit the cleavage of the substrate by fluorescence-based FRET assay
Interstitial collagenase = biological target: T2, Interstitial collagenase (Homo sapiens, UniProt P03956); assay: Inhibition of MMP1 (unknown origin) by fluorescence-based FRET assay
T2 sequence (P03956 whole entry): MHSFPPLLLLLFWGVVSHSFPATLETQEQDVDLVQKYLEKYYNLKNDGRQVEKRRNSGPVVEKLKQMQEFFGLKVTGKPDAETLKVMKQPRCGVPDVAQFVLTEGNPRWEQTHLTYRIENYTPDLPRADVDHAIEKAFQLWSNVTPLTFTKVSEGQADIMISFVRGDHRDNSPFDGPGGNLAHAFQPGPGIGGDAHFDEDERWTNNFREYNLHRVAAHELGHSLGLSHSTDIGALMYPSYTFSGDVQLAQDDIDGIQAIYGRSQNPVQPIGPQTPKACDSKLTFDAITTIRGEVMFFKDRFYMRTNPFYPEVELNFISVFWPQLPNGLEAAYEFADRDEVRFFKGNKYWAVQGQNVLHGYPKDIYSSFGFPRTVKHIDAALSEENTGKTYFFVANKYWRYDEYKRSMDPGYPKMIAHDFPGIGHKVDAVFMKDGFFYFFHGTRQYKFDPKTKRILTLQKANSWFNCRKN

[2] = biological target: Matrix metalloproteinase-9 (Homo sapiens, UniProt P14780); assay: Inhibition of MMP9 (unknown origin) by fluorescence-based FRET assay
Collagenase 3 = Collagenase 3 (Homo sapiens, UniProt P45452); assay: Inhibition of MMP13 (unknown origin) by fluorescence-based FRET assay
[3] = biological target: T1, Disintegrin and metalloproteinase domain-containing protein 17; assay: Ratio of IC50 for human catalytic domain of TACE to IC50 for ADAM10 (unknown origin)
[4] = biological target: T1, Disintegrin and metalloproteinase domain-containing protein 17; assay: Ratio of IC50 for human catalytic domain of TACE to IC50 for MMP2 (unknown origin)
[5] = biological target: T1, Disintegrin and metalloproteinase domain-containing protein 17; assay: Ratio of IC50 for human catalytic domain of TACE to IC50 for MMP13 (unknown origin)
[6] = biological target: T1, Disintegrin and metalloproteinase domain-containing protein 17; assay: Ratio of IC50 for human catalytic domain of TACE to IC50 for MMP14 (unknown origin)
[7] = Tmax in Wistar rat at 5 mg/kg, po; format: ADME, organism-based; design: dose 5 mg/kg, route oral; conditions: in vivo
Rattus norvegicus [8] = assay: Toxicity in Wistar rat assessed as survival at 100 mg/kg, po bid for 28 days; format: organism-based; design: dose 100 mg/kg, route oral; conditions: in vivo, 672 h
Rattus norvegicus [9] = assay: Toxicity in Wistar rat assessed as adverse changes at 100 mg/kg, po bid for 28 days; format: organism-based; design: dose 100 mg/kg, route oral; conditions: in vivo, 672 h
Rattus norvegicus [10] = assay: Toxicity in Wistar rat assessed as food consumption at 100 mg/kg, po bid for 28 days; format: organism-based; design: dose 100 mg/kg, route oral; conditions: in vivo, 672 h

T1 sequence (P78536 whole entry, the tested form may be a part): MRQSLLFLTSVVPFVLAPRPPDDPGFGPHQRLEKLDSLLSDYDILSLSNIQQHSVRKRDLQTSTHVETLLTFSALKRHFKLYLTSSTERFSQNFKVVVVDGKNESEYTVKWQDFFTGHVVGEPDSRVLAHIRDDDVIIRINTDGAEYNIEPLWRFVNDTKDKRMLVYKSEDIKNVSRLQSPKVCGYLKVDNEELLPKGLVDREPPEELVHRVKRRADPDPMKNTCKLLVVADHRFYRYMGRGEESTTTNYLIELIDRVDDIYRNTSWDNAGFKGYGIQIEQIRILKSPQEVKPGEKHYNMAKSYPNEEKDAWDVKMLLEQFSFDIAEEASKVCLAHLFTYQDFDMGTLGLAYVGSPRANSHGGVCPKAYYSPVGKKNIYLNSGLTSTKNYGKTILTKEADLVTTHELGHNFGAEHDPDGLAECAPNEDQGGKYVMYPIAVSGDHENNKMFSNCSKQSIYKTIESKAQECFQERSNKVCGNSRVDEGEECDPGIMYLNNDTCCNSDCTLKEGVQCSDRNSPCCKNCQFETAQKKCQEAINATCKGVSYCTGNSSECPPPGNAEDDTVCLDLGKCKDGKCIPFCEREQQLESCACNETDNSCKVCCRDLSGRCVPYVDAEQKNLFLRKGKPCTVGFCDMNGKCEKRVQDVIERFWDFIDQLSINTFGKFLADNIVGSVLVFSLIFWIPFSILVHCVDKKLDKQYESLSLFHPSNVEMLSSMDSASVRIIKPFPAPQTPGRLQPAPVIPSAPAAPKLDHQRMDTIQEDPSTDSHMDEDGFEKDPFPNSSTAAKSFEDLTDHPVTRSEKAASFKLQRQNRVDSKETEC
Sequence of Matrix metalloproteinase-9 (P14780 whole entry): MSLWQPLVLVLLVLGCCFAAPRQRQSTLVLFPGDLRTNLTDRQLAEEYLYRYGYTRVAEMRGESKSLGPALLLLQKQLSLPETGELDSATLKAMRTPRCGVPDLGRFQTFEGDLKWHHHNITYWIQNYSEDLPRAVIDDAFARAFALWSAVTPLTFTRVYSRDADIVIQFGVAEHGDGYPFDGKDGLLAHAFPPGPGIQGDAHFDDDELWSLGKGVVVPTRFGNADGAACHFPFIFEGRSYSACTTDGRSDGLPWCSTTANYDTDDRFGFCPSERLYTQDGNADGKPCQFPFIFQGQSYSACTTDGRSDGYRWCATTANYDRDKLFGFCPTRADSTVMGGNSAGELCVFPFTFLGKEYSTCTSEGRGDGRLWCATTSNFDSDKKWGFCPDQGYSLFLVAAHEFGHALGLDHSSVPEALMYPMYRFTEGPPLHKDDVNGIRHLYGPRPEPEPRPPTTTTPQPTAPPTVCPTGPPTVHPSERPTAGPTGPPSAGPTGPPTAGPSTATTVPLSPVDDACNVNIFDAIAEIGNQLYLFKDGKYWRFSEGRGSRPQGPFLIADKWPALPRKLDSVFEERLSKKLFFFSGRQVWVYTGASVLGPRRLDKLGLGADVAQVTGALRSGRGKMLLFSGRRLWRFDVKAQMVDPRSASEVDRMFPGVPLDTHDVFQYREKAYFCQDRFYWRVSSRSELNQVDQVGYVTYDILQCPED

SMILES: COCCc1cc(COc2ccc([C@]3(N)CCN([C@H](CC(C)C)C(=O)NO)C3=O)cc2)c2ccccc2n1
- IC50 [1]: 0.0023 µM
- IC50 (Interstitial collagenase): 1.06 µM
- IC50 [2]: 1.21 µM
- IC50 (Collagenase 3): 1.11 µM
- Ratio IC50 [3]: > 500
- Ratio IC50 [4]: > 500
- Ratio IC50 [5]: > 500
- Ratio IC50 [6]: > 500
- Tmax [7]: 19.8 min
- Activity (Rattus norvegicus [8]): Non-toxic
- Activity (Rattus norvegicus [9]): Non-toxic
- Activity (Rattus norvegicus [10]): Non-toxic

— ChEMBL document CHEMBL3217463, “Design, synthesis and biological evaluation of -lactam hydroxamate based TACE inhibitors” (Medchemcomm, 2011)
